The record followed here is US20230372433A1, “NANOPARTICLE FOR ANTI-CANCER PEPTIDES AND USES THEREOF” (KING'S COLLEGE LONDON, priority 2020, published 2023).

Assay [1] deals with HMLER (human breast cancer bulk cell). Kind of assay: MTT cytotoxicity assay, HMLER. It is filed as cell-based. The following applies: 72 hr, MTT; read-out: IC50 HMLER. For orientation: Tetrazolium dyes change colour on reduction, which living cells bring about.
Assay [2] concerns HMLER-shEcad (human breast cancer stem cell). Kind of assay: MTT cytotoxicity assay, HMLER-shEcad. It is filed as cell-based. The following applies: 72 hr, MTT; read-out: IC50 HMLER-shEcad.
Assay [3] has as its system MCF-10A (human breast epithelial cell). Kind of assay: cells. An excerpt: HMLER (human mammary endothelial cancer cells), HMLER-shEcad (human mammary endothelial cancer stem cells), and MCF-10A (healthy human mammary endothelial) cells were maintained in Mammary Epithelial Cell Growth Medium (MEGM) with supplements and growth factors: bovine pituitary extract (BPE), hydrocortisone, human epidermal growth factor (hEGF), insulin, and gentamicin/amphotericin-B. HEK293T (human embryonic kidney cell), and U2OS (homo sapiens bone osteosarcoma) cells were maintained in Dulbecco's Modified Eagle's Medium (DMEM) with a final concentration of 10% fetal bovine serum. The cells were grown in T75 flask at 310 K in a humidified atmosphere containing 5% CO2.
The colourimetric MTT (3-(4,5-dimethylthiazol-2-yl)-2,5-diphenyltetrazolium bromide) assay was used to determine the toxicity of the anti-cancer peptides and conventional anti-cancer drugs. 5×10^3 cells were seeded in each well of a 96-well microplate. The cells were incubated overnight. Elevated concentrations of the compounds (0, 0.1, 0.2, 0.4, 0.8, 1.6, 3.1, 6.3, 12.5, 25, 50 and 100 μM) were added and incubated for 72 hr with a total volume 200 μL. The stock solutions of the compounds were prepared as 5 mM solutions in DMSO and diluted using media or in pure water. The final concentration of DMSO in each well was either 0.5% or 0% and this amount was present in the untreated control. After 72 hr, 20 μL of a 4 mg/mL solution of MTT in PBS was added to each well, and the plate was incubated for an additional 4 hr. The MEGM/MTT mixture was aspirated and 100 μL of DMSO was added to dissolve the resulting purple formazan crystals. The absorbance of the solutions in each well was read at 550 nm wavelength. Absorbance values were normalized to either DMSO-containing or non DMSO-containing control wells and plotted as concentration of test compound versus % cell viability. ICso values were interpolated from the resulting dose dependent curves.
The peptides were screened against several different human cell lines and their cytotoxicity were determined. Cell lines utilised include MCF-10A (human breast epithelial cell), HMLER (human breast cancer bulk cell), HMLER-shEcad (human breast cancer stem cell), HEK293T (human embryonic kidney cell), and U2OS (human bone osteosarcoma).

Assay [4] has as its system U2OS (human bone osteosarcoma). Kind of assay: MTT cytotoxicity assay, U2OS. It is filed as cell-based. Particulars: 72 hr.
Assay [5] has as its system HEK293T (human embryonic kidney cell). Kind of assay: MTT cytotoxicity assay, HEK293T. It is filed as cell-based. The following applies: 72 hr, MTT; read-out: IC50 HEK293T.
Assay [6] can be described thus: Tryptophan fluorescent binding assay, POPC vesicles. The following applies: 50 μM peptide, PBS pH 7.4. The method, then:
(§1) In brief, 50 μM peptides were fixed and incubated with titrated POPC vesicles (black) or 3POPC/1POPG vesicles (grey) at concentrations of 0, 12.5, 25, 50, 100, 250, 500, 1000, 2500, and 5000 μM in phosphate buffered saline (1X, pH 7.4). The lipid concentration that causes 50% peptide binding was determined using a tryptophan fluorescent binding assay and the values are shown as lipid per peptide.
(§2) The lipids 1-palmitoyl-2-oleoyl-sn-glycero-3-phosphocholine (POPC), 1-palmitoyl-2-oleoyl-snglycero-3-phospho-(1′-rac-glycerol) (POPG) were purchased from Avanti Polar Lipids and dissolved in chloroform. Large unilamellar vesicles (LUVs) were produced by extrusion through 100 nm pore filter using an extruder and filters purchased from Avanti Polar Lipids.
(§3) Peptides (50 μM) and POPC/POPG LUVs (600 μM) were prepared in 10 mM phosphate buffer (pH 7.0). The solutions were incubated and measured after 60 minutes. Excitation was fixed at 280 nm (slit 9 nm) and emission was collected from 300 to 450 nm (slit 9 nm). The spectra were recorded using a Synergy H1 Hybrid Multi-Mode Reader (FIG. 3A) and Cytation™ 5 Cell Imaging Multi-Mode Reader (FIG. 2) from BioTek and were averaged over 3 scans.
(§4) Table 3 illustrates the lipid concentration-induced 50% peptide binding onto a liposome. 50 μM peptide was fixed and incubated with titrated lipid (POPC vesicles or 3POPC/1POPG vesicles) at concentrations of 0, 12.5, 25, 50, 100, 250, 500, 1000, 2500, and 5000 μM in phosphate buffered saline (1X, pH 7.4). The lipid concentration that causes 50% peptide binding was determined using tryptophan fluorescent binding assay and the values are shown as lipid per peptide. IN-terminus is free, C-terminus: —W—NH2.

Assay [7] can be described thus: Tryptophan fluorescent binding assay, 3POPC/1POPG vesicles. Particulars: 50 μM peptide, PBS pH 7.4. The method, then: as §1, §2, §3, §4
The nature of assay [8]: ANTS/DPX liposome leakage assay, POPC vesicles. It is filed as biochemical. The following applies: 0.5 mM vesicles. On the procedure: (§5) In brief, 0.5 mM POPC vesicles (grey) or POPC:POPG vesicles (ratio 3:1, black) were incubated with peptide concentrations of 0, 0.02, 0.04, 0.08, 0.16, 0.32, 0.64, 1.25, 2.5, 5, 10, and 20 μM in each A) hydrochloric acid-adjusted phosphate buffered saline (1X, pH 4.8) and B) phosphate buffered saline (1X, pH 7.4).
as §2
(§6) 5 mM ANTS (8-aminonaphthalene-1,3,6-trisulfonic acid, disodium salt) and 12.5 mM DPX (p-xylene-bis-pyridinium bromide) were entrapped in 0.1 μm diameter extruded vesicles with lipids. Gel filtration chromatography using a Sephadex G-100 (GE Healthcare Life Sciences Inc) was used to remove external free ANTS/DPX from LUVs with entrapped contents. LUVs were diluted to 0.5 mM and used to measure the leakage activity by addition of aliquots of peptides. Leakage was measured after 3 h incubation. 10% Triton was used as the positive control to measure the maximum leakage of the vesicle. Fluorescence emission spectra were recorded using excitation and emission wavelength of 350 nm and 510 nm for ANTS/DPX using a BioTek Synergy H1 Hybrid Multi-Mode Reader.
(§7) Table 4 illustrates peptide concentration-induced 50 ANTS/DPX liposome leakage. 0.5 mM POPC and 3POPC/1POPG vesicles were fixed and incubated with titrated peptide concentration (0, 0.02, 0.04, 0.08, 0.16, 0.32, 0.64, 1.25, 2.5, 5, 10, and 20 μM) each in phosphate buffered saline (1X, pH 7.4) and hydrochloric acid-adjusted phosphate buffered saline (1X, pH 4.8). The values are shown as lipid per peptide. IN-terminus is free, C-terminus: —W—NH2.

The nature of assay [9]: ANTS/DPX liposome leakage assay, 3POPC/1POPG vesicles. Particulars: for Peptide Concentration-induced 50% ANTS/DPX leakage at pH 4.8 (L/P) 3POPC/1POPG Vesicle / Peptide Concentration-induced 50% ANTS/DPX leakage at pH 7.4 (L/P) 3POPC/1POPG Vesicle: 0.5 mM vesicles. It is filed as biochemical. The method, then: as §5, §2, §6, §7

Like-named read-outs stand apart in the source and are kept apart here. Some results are limits rather than exact numbers.

A word on the IC50: it is the concentration that inhibits the measured activity by half. Consider `CC(C)C[C@H](NC(=O)CN)C(=O)N[C@@H](CC(C)C)C(=O)N[C@@H](CC(=O)O)C(=O)N[C@@H](CC(C)C)C(=O)N[C@@H](CC(C)C)C(=O)N[C@@H](CCC(=O)O)C(=O)N[C@@H](CC(C)C)C(=O)N[C@@H](CC(C)C)C(=O)N[C@@H](CC(C)C)C(=O)N[C@@H](CCCCN)C(=O)N[C@@H](C)C(=O)N[C@@H](C)C(=O)NCC(=O)N[C@@H](Cc1c[nH]c2ccccc12)C(N)=O` [DEK], for which the IC50 in [1] was 1.14 ± 0.52 µM; in assay [2] it was 0.7 ± 0.07 µM; in [3] it was no less than 100 µM; in assay [4] it was 19.9 ± 2.65 µM; in assay [5], 6.8 ± 0.85 µM. Besides, the “Lipid Concentration-induced 50% Peptide Binding (L/P) POPC Vesicle” value in [6] is recorded as 1.50 L/P. Further, the “Lipid Concentration-induced 50% Peptide Binding (L/P) 3POPC/1POPG Vesicle” value in assay [7] is reported as 1.67 L/P. The “Peptide Concentration-induced 50% ANTS/DPX leakage at pH 4.8 (L/P) POPC Vesicle” value in [8] turned out to be 10 L/P. In addition, in assay [8], the “Peptide Concentration-induced 50% ANTS/DPX leakage at pH 7.4 (L/P) POPC Vesicle” value stood at 747 L/P. Further, in assay [9] (pH 4.8), the “Peptide Concentration-induced 50% ANTS/DPX leakage at pH 4.8 (L/P) 3POPC/1POPG Vesicle” value was 469 L/P. Moreover, the “Peptide Concentration-induced 50% ANTS/DPX leakage at pH 7.4 (L/P) 3POPC/1POPG Vesicle” value in assay [9] is 773 L/P. Moreover, the “liposome leakage activity from anionic vesicle at pH 4.8” value in [9] (compared with zwitterionic vesicle, pH 4.8) is “relatively higher liposome leakage activity”.

In the case of “GLDDLAKLLLKLAG [25B2, reference compound]”, the IC50 worked out at 8.36 ± 0.61 µM in assay [1]; 11.7 ± 0.49 µM in assay [2]; 26.7 ± 3.33 µM in [3] (read-out: IC50 MCF-10A, 72 hr, MTT); 54 ± 8.43 µM in [4]; 25.2 ± 2.19 µM in assay [5].

GLLDLLHLLLHAAG [DHH]: the IC50 in assay [1] amounted to 21.4 ± 2.47 µM; in [2], 11.9 ± 0.14 µM; in [4], 55.9 ± 18.9 µM; in assay [5] it was 6.4 ± 0.42 µM. Also, the “Lipid Concentration-induced 50% Peptide Binding (L/P) POPC Vesicle” value in assay [6] is 0.67 L/P. Also, the “Lipid Concentration-induced 50% Peptide Binding (L/P) 3POPC/1POPG Vesicle” value in [7] is reported as 0.28 L/P. The “Peptide Concentration-induced 50% ANTS/DPX leakage at pH 4.8 (L/P) POPC Vesicle” value in assay [8] is recorded as 106 L/P. Also, in [8], the “Peptide Concentration-induced 50% ANTS/DPX leakage at pH 7.4 (L/P) POPC Vesicle” value came out at 684 L/P. Further, the “Peptide Concentration-induced 50% ANTS/DPX leakage at pH 4.8 (L/P) 3POPC/1POPG Vesicle” value in assay [9] (pH 4.8) is reported as 98 L/P. Besides, in assay [9], the “Peptide Concentration-induced 50% ANTS/DPX leakage at pH 7.4 (L/P) 3POPC/1POPG Vesicle” value was determined as 692 L/P.

Regarding GLLELLHLLLHAAG [EHH], the IC50 in assay [1] came out at 25.4 ± 2.76 µM; in assay [2] it was 16.1 ± 3.18 µM; in assay [5], 5.9 ± 0.14 µM. Further, the “Lipid Concentration-induced 50% Peptide Binding (L/P) POPC Vesicle” value in [6] is recorded as 0.94 L/P. Besides, the “Lipid Concentration-induced 50% Peptide Binding (L/P) 3POPC/1POPG Vesicle” value in assay [7] came to 0.69 L/P. In addition, the “Peptide Concentration-induced 50% ANTS/DPX leakage at pH 4.8 (L/P) POPC Vesicle” value in [8] stood at 386 L/P. Besides, the “Peptide Concentration-induced 50% ANTS/DPX leakage at pH 7.4 (L/P) POPC Vesicle” value in [8] turned out to be 1043 L/P. The “Peptide Concentration-induced 50% ANTS/DPX leakage at pH 4.8 (L/P) 3POPC/1POPG Vesicle” value in assay [9] (pH 4.8) is 80 L/P. In addition, in [9], the “Peptide Concentration-induced 50% ANTS/DPX leakage at pH 7.4 (L/P) 3POPC/1POPG Vesicle” value is reported as 981 L/P.
